Assay results: patent US20040230057A1, “Dye for optical recording medium” (priority 2003, published 2004)

Tests used:
[1] = thermal gravimetric analysis; type: physicochemical; conditions: for Thermal Breakdown Temperature: temperature of a 5% thermal weight loss; for temperature of sudden weight loss (thermal breakdown temperature): thermal gravimetric analysis
Source text: (§1) The results of the thermal gravametric analysis and the ultraviolent-visible absorption spectroscopy of the optical recording medium dyes obtained in the above experiment 1 to experiment 8 are summarized in Table 1. The thermal gravametric analysis and the ultraviolent-visible absorption spectroscopy detect, respectively, the thermal breakdown temperature (the temperature of a 5% thermal weight loss) and the optical property (the largest absorption wavelength, absorption coefficient of the solution). […] Further, the thermal breakdown temperatures are above 250 degrees Celsius. Accordingly, the optical recording medium dyes of the present invention comprises a broad wavelength range and has favorable thermal stability and solubility.

[2] = UV-visible absorption spectroscopy; type: physicochemical; conditions: for absorption wavelength: UV-visible absorption spectrum; for Maximum Absorption Wavelength: methanol
Source text: as §1

SMILES	Thermal Breakdown Temperature [1] [°C]	temperature of sudden weight loss (thermal breakdown temperature) [1]	absorption wavelength [2] [nm]	Maximum Absorption Wavelength [2] [nm]
CCCCN1C(=CC=Cc2ccc3ccccc3[n+]2CCCC)C(C)(C)c2c1ccc1ccccc21 [Experiment 2]	268.6	about 268.6 degrees Celsius	583.0	583.0
CCCCN1C(=CC=Cc2ccc3ccccc3[n+]2CCCC)C(C)(C)c2c1ccc1ccccc21 [Experiment 3]	274.2	about 274.2 degrees Celsius	583.0	583.0
CCCC[n+]1c(C=CC=C2N(C)c3ccc([N+](=O)[O-])cc3C2(C)C)ccc2ccccc21 [Experiment 4]	309.5	about 309.5 degrees Celsius	548.2	548.2

The next lines start with the values.

Thermal Breakdown Temperature [1] [°C]	temperature of sudden weight loss (thermal breakdown temperature) [1]	absorption wavelength [2] [nm]	Maximum Absorption Wavelength [2] [nm]	SMILES
280.2	about 280.2 degrees Celsius	561.8	561.8	CCCCN1C(=CC=Cc2ccc3ccccc3[n+]2CCCC)C(C)(C)c2cc(Cl)ccc21 [Experiment 1]
266.3	about 266.3 degrees Celsius	598.4	598.4	CCCCN1C(=CC=Cc2cc[n+](CC)c3ccccc23)C(C)(C)c2cc(Cl)ccc21 [Experiment 5]
302.7	about 302.7 degrees Celsius	570.0	570.0	CC[n+]1ccc(C=CC=C2N(C)c3ccc([N+](=O)[O-])cc3C2(C)C)c2ccccc21 [Experiment 6]
270.7	about 270.7 degrees Celsius	625	625.0	CCCCN1C(=CC=Cc2cc[n+](CC)c3ccccc23)C(C)(C)c2c1ccc1ccccc21 [Experiment 7]
